# Assay results from US7235531B2, “Tachykinin-like polypeptides and use thereof” (Takeda Pharmaceutical Company, priority 1999, dated 2007).
# No end group written: not given here.
# Legend:
# [1] = test system: guinea pig ileum specimens; assay: Contracting activity of ATT(35-45) on guinea pig ileum specimens; type: cell-based; conditions: 10^−10 M to 3×10^−7 M
# Method: The horizontal axis in the figure represents the dose (M) of ATT(35-45), and the vertical axis represents the rate of contraction relative to the contraction of the guinea pig ileum specimens induced by 10^-6 M acetylcholine.
# The contracting activity of ATT(35-45) on guinea pig ileum specimens was determined in the following manner. 13 to 15-week old male guinea pigs (std: Hartley) were exsanguinated, and the ileum was excised. The ileum was cut to a length of 1.5 cm to prepare specimens. The specimens were aerated with a gas mixture (95% O^2-5% CO2) while suspended in Tyrode's solution (137.9 mM NaCl, 2.7 mM KCl, 1.8 mM CaCl2, 0.5 mM MgCl2, 1.1 mM NaH2PO4, 11.9 mM NaHCO3, and 5.6 mM glucose) maintained at 37° C., and the isotonic contractions under a 0.5 g load were recorded. The peptide was administered cumulatively in the organ bath.
# anesthetized rats = assay: Activity of ATT(35-45) on blood pressure in anesthetized rats; type: in vivo, Male Wistar rats; conditions: for decrease in blood pressure: left femoral vein (i.v.), n=4, mean±standard deviation
# Method: The activity of ATT(35-45) on blood pressure in anesthetized rats was determined in the following manner. Male Wistar rats (weighing 300 to 400 g, by CLEA Japan Inc.) were anesthetized with thiobutabarbital sodium (100 mg/kg i.p.), a catheter (SP-55) for measuring blood pressure connected to a transducer was inserted into the left carotid artery, and a catheter (SP-35) for intravenous administration was inserted into the left femoral vein. The peptide was dissolved in physiological saline containing 0.05% BSA, and doses of 0.01, 0.1, and 1 nmol/kg were administered through the left femoral vein. The blood pressure was continuously recorded on a polygraph (NEC Sanei).
substance,measurement,setting,value
"TGKASQFFGLM-NH2 [ATT(35-45), Thr-Gly-Lys-Ala-Ser-Gln-Phe-Phe-Gly-Leu-Met-NH2]",contraction of guinea pig ileum specimens (in words),[1],concentration-dependent contraction
same,maximum contraction relative to the contraction induced with 10^−6 M acetylcholine,[1]; guinea pig ileum,about 90%
same,decrease in blood pressure,anesthetized rats; 0.01 nmol/kg,12.3±0.8 mmHg
same,decrease in blood pressure,anesthetized rats; 0.1 nmol/kg,21.5±1.8 mmHg
same,decrease in blood pressure,anesthetized rats; 1 nmol/kg,33.8±6.6 mmHg
same,effect on blood pressure (in words),"anesthetized rats; doses of 0.01, 0.1 and 1 nmol/kg i.v.",dose-dependent decreases in blood pressure
